One series has as its system PKA. The series is described as follows: PKA activity assay on lysates of treated astrocytes. Type of series: cell-based, mouse. The method, then:
PKA activity assay. PKA activity was determined using a commercially available kit (Calbiochem, San Diego, Calif.) according to manufacturer's recommendations. Primary mouse astrocytes were grown in 6-well plates and then stimulated as described and lysed in 100 μl buffer (same buffer used for Western blotting) for 30 min. Five μl of the lysates were incubated with 20 μl PKA reaction mixture at 30° C. for 30 min. The reaction was terminated by adding 10 μl stop solution and ^32P radioactivity was counted.

The test system of series [1] is primary neonatal mouse astrocyte cultures. The experiment in a line: RNase protection assay (RPA) for chemokine/cytokine transcripts in astrocyte cultures. Type of series: cell-based. As for the experimental part: Astrocyte isolation and culture. […] RNA isolation and RNase protection assay (RPA). […] RNase protection assays (RPA) for chemokine message were conducted with multi-probe templates according to the manufacture's protocol (RiboQuant assay kit, BD-PharMingen, San Diego, Calif.). Gels were scanned and radioactive bands quantitated using a phosphoimager (Molecular Dynamics, Sunnyvale, Calif.). Levels of uniformly expressed housekeeping genes large ribosomal subunit protein 32-3A (L32) or glyceraldehyde-3-phosphate dehydrogenase (GAPDH), were used for normalization. The value of each chemokine receptor band divided by the value of the indicated housekeeping gene band in the same sample yielded the relative intensity. Normalized receptor expression represents the ratio of the relative intensity following treatment with chemokine versus the relative intensity of medium alone. Treatment with pharmacological inhibitors. Astrocytes were washed and resuspended in serum-and insulin-free complete medium and starved overnight. Cells were treated at 37° C. for 1 h with 100 ng/ml Pertussis toxin (PTx) before addition of RANTES or IL-1. […] The cells were harvested after a 3 h incubation with RANTES; RNA was prepared and assayed by RPA.

For series [2], the system named is MEK, ERK1/2, p90RSK, p38, SAPK/JNK phosphorylation in astrocytes. The series is described as follows: Western blotting of phosphorylated MAP kinase pathway proteins in astrocyte lysates. Type of series: cell-based, mouse. As for the experimental part:
SDS-PAGE and Western blotting. Astrocytes were treated for the indicated time with media or 100 ng/ml RANTES, eotaxin, or other materials as indicated. Cells (3×10^5 in Examples 1-3, or 2×10^4 in later Examples) were resuspended in 100 μl buffer (50 mM HEPES, pH 7.5, 150 mM NaCl, 2 mM EDTA, 2 mM EGTA, 1% Triton X-100, 50 mM Sodium fluoride, 5 mM Sodium pyrophosphate, 50 mM Sodium β-glycerophosphate, 1 mM Sodium Ortho-vanadate, 1 mM DTT, 1 mM PMSF, 10 μg/ml Leupeptin, and 10 μg/ml Aprotinin). Protein concentration of the whole cell extract was determined by BCA protein assay kit (Pierce, Rockford, Ill.). Samples (10 μg) were loaded and separated on a 10% SDS-polyacrylamide gel. After transfer to Hybond ECL nitrocellulose membrane (Amersham Pharmacia Biotech Inc, Piscataway, N.J.) or Zeta-probe blotting membranes (Bio-Rad, Richmond Calif.) blots were blocked overnight with 5% BSA at 4° C., and probed with the antibody indicated. Antibody against unphosphorylated or phosphorylated erk (Cell Signaling, Beverly, Mass.) was used at 1 μg/ml. Appropriate anti-immunoglobulin reagents were used to develop the blots by enhanced chemiluminescence (Amersham Pharmacia Biotech Inc, Piscataway, N.J.).
Little is known about the signaling mechanisms involved in astrocyte respones to chemokines. To examine components of the RANTES signal transduction pathway, phosphorylation of the MAP kinase kinase (MEK) and mitogen activated protein (MAP) kinases was examined. To minimize basal kinase activity, astrocytes were starved of serum for at least 3 h before treatment with chemokine. Whole cell lysates were separated by SDS-PAGE and examined by Western blot. Antibodies that specifically react with phosphorylated MEK or phosphorylated extracellular signal-related kinase (ERK) were used to detect the active kinases.
Background: In western blotting, separated proteins are transferred to a membrane and probed.

Series [3] concerns astrocytes.
Another series has as its system murine KC promoter. The series is described as follows: KC promoter luciferase reporter in transfected astrocytes. Format: cell-based, mouse. As to conditions: U0126 indicated amounts or 5 μM SB203580 plus 100 ng/ml RANTES, 24 h. From the text: Plasmids, transient transfection, and luciferase activity assay. The KC reporter plasmid was constructed by using a luciferase reporter gene pGL-3 basic vector (Promega, Madison, Wis.) driven by mouse KC promoter (−2878/+43). Wild-type p90RSK expression (WT pKH3) and dominant negative p90RSK expression (ΔΔ RSK pKH3) plasmids were obtained from Dr. John Blenis, Harvard Medical School. Astrocytes were transiently transfected with Lipofectamine 2000 reagent (Life Technologies, Gaithersburg, Md.) according to the manufacturer's protocol. After 24 h, the cells were stimulated with RANTES in absence or presence of the indicated inhibitor, and luciferase activity was determined after an additional 24 h, by the procedure according to the manufacturer (Promega, Madison, Wis.). Relative luciferase activity was normalized for cell lysate protein concentration as determined by BCA protein assay kit (Pierce, Rockford, Ill.). The Relative Fold Induction is the relative intensity of the experimental sample divided by the relative intensity of the medium control.
To establish whether RANTES up-regulation of chemokine production is mediated by activation of promoter elements, primary astrocyte cultures were transiently transfected with a murine KC promoter-luciferase construct, and reporter activity was monitored after RANTES treatment.
Background: Reporter assays use an easily measured gene product as a stand-in for the process of interest.

For series [4], the system named is cultured mouse astrocytes. The experiment in a line: RT-PCR for KC message in astrocytes. Type of series: cell-based.
In series [5] the test system is CXCR4, CX3CR1, CCR1, CCR5 transcripts in astrocytes. The experiment in a line: RPA for chemokine receptor transcripts in astrocytes. Format: cell-based, mouse. The settings on record: average, pooled results of 3-4 experiments. The method, then:
RNA isolation and RNase protection assay (RPA). RNA was prepared as in Luo, Y., et al. 1999. J Immunol 163:3985. RNase protection assays (RPA) for chemokine message were conducted with multi-probe templates according to the manufacture's protocol (RiboQuant assay kit, BD-PharMingen, San Diego, Calif.). Gels were scanned and radioactive bands quantitated using a phosphoimager (Molecular Dynamics, Sunnyvale, Calif.). Levels of uniformly expressed housekeeping genes large ribosomal subunit protein 32-3A (L32) or glyceraldehyde-3-phosphate dehydrogenase (GAPDH), were used for normalization. The value of each chemokine receptor band divided by the value of the indicated housekeeping gene band in the same sample yielded the relative intensity. Normalized receptor expression represents the ratio of the relative intensity following treatment with chemokine versus the relative intensity of medium alone.
Treatment with the RANTES-related chemokines RANTES or eotaxin, or with TNF-α also found to down-regulate expression of CX3CR1 transcripts. In addition, CXCR4 mRNA levels were decreased, while the levels of CCR1 transcripts were elevated. In contrast, little or no regulation of CCR5 was noted. The pooled results of 3-4 experiments indicate eotaxin caused an average 60% decrease in CXCR4 (P less than 0.01) and a 70% decrease in CX3CR1 mRNA (P less than 0.02) (FIG. 8.B). The effects of RANTES stimulation were similar with an average 70 and 90% reduction in CXCR4 and CX3CR1 transcripts, respectively (P less than 0.01).

The test system of series [6] is astrocytes. The series is described as follows: ELISA of KC, TNF-α and MCP-1 protein in astrocyte culture supernatants. Type of series: cell-based, mouse. The settings on record: 48 h, 1.5 to 100 ng/ml tested.

Entries after “also recorded” stand apart in the source; their conditions may differ. Where only a bound is given, the exact number is not on record here.

For the molecule `O=C1Nc2ccc(I)cc2/C1=C/c1cc(Br)c(O)c(Br)c1` [Raf-1 inhibitor, reference compound], the “effect on PKA activity” value in the series on PKA is listed as “neither U0126 nor Raf-1 inhibitor decreased PKA activity”. Further, in series [1] (increasing doses, 1 h pretreatment, 100 ng/ml RANTES 3 h), the “effect on RANTES-induced chemokine/cytokine gene expression” value is listed as “blocked gene expression in a dose dependent fashion”. Also, the “effect on MEK and erk1/2 phosphorylation induced by RANTES” value in series [2] was “blocked”. Also, in the series on astrocytes [3], the “effect on astrocyte viability or expression of the housekeeping genes L32 and GAPDH” value is “failed to affect”.
As to `N#CC(=C(/N)Sc1ccccc1N)/C(C#N)=C(\N)Sc1ccccc1N` [U0126, reference compound], in the series with PKA, the “effect on PKA activity” value was “neither U0126 nor Raf-1 inhibitor decreased PKA activity”. Moreover, in series [1], the “effect on H-89 induced chemokine/cytokine transcription” value is “inhibited; also recorded: blocked”; the “effect on RANTES-induced chemokine message” value is reported as “blocked induction of chemokine transcripts”; the “effect on background level of RANTES transcript” value is recorded as “failed to diminish”; the “inhibition of RANTES-induced TNF-α and chemokine transcription” value is “partially inhibited; also recorded: completely inhibited”. For the same molecule, the “effect on erk1/2 and RSK phosphorylation induced by H-89” value in series [2] (10-50 μM U0126 or 5 μM SB203580, 10 μM H-89 for 20 min) is listed as “blocked”. Besides, the “effect on RANTES-induced RSK phosphorylation” value in series [2] (varying concentrations before 100 ng/ml RANTES, 20 min) is recorded as “block RSK phosphorylation in a dose dependent fashion”. Further, the “effect on RANTES-induced KC reporter activity” value in the series on murine KC promoter is given as “inhibit reporter activity”.

B1: eotaxin: recombinant mouse chemokine, RANTES-related, purchased from R&D System (protein, UniProt P48298 24-97, looked up)
Eotaxin: HPGSIPTSCCFIMTSKKIPNTLLKSYKRITNNRCTLKAIVFKTRLGKEICADPKKKWVQDATKHLDQKLQTPKP
On to B1, for which the “synthesis of KC message” value in series [4] was “induce synthesis of KC message”. For the same molecule, the “production of chemokine transcripts by astrocytes from mice deficient for CCR1, CCR2, CCR3, or CCR5” value in series [1] (100 ng/ml) is “specifically responded”. Moreover, the “expression of TNF-α, RANTES, KC, MIP-1α, MIP-2, and MCP-1 transcripts” value in series [1] (BALB/cJ neonatal astrocytes, chemokine for 6 h) is reported as “up-regulated”. Further, the “ability to induce chemokine transcripts after boiling” value in series [1] (boiled for 30 min before incubation with astrocytes) is “completely destroyed”. Further, in series [5], the “decrease in CX3CR1 mRNA” value is listed as 70% and the “decrease in CXCR4 mRNA” value is reported as 60%. The “concentration inducing KC protein” value with astrocytes [6] was not below 25 ng/mL.

For the origin of these results see patent US20030082135A1, “Pathway of RANTES-mediated chemokine synthesis in astrocytes and methods of use therefor” (priority 2001, published 2003).
